Test results reported in patent publication US7045532B2 (Millennium Pharmaceuticals, Inc., priority 1999, dated 2006).

Tests used:
[1] = target: T1, ACE-2 (Homo sapiens, UniProt Q9BYF1); test: ACE-2 Competitive Substrate Assay (ACS Assay); format: biochemical; settings: Ki class; compounds tested in 5% DMSO, 12 concentrations; read-out: Human ACE-2 Activity
T1 construct: a stop codon inserted after the serine immediately preceding the transmembrane domain; made in house; host or cells: CHO K1 cells (transient transfection, purified from conditioned medium)

[2] = target: T2, ACE (Sigma, A2580) (Sus scrofa, UniProt F1RRW5); test: ACE enzymatic activity assay; format: biochemical, porcine; settings: Ki class; compounds tested in 5% DMSO, 12 concentrations
T2 construct: ACE from porcine kidney; purchased Sigma A2580; host or cells: porcine kidney
T2 sequence (F1RRW5 34-1309): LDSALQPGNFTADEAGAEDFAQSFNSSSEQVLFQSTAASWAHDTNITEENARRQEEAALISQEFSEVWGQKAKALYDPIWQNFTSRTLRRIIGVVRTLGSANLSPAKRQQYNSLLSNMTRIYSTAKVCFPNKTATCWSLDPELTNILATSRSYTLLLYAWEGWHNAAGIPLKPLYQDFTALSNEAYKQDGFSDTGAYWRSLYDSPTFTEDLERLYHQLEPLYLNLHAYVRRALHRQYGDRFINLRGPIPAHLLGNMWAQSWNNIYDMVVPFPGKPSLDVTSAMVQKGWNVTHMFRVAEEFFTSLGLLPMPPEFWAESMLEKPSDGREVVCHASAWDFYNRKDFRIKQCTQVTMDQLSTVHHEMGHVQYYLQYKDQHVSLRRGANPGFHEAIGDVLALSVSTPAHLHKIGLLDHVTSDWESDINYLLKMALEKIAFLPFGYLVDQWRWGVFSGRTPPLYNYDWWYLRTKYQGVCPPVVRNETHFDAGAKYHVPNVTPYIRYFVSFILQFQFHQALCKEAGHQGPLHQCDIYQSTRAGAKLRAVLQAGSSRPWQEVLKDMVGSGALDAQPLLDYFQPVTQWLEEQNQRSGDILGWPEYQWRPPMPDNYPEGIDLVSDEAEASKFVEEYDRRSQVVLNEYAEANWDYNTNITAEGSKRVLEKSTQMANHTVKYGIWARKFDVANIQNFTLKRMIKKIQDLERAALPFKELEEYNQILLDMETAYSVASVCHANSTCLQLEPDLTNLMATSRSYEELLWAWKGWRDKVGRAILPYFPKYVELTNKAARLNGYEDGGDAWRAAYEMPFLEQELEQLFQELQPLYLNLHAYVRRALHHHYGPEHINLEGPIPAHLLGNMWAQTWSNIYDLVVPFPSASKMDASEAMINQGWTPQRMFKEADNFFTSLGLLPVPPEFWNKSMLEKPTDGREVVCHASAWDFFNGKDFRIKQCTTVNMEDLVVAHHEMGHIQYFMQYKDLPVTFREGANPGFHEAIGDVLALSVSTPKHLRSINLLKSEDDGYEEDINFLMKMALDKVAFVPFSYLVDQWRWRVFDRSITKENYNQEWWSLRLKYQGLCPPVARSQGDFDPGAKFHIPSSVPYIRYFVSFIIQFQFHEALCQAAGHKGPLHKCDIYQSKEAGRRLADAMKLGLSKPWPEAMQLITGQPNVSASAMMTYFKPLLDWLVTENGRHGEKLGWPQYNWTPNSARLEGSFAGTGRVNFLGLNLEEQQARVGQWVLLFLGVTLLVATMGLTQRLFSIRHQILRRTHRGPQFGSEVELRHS
Description: ACE (Sigma, A2580) enzymatic activity was assayed in microtiter plates using the following protocol. ACE assay buffer was made from 50 mM HEPES (Sigma), 300 mM sodium chloride (Sigma), and 0.01% Brij-35 (Pierce Chemical Co) at pH 7.5.
Reactions were mixed and incubated at 25° C. Enzymatic cleavage of the substrate is marked by a fluorescence change (excitation 330 nm, emission 415 nm).
The activity of the test compounds was investigated using the procedure outlined above. The compounds were tested in 5% DMSO. Enzyme activity was measured at 12 compound concentrations. […]. […]

[3] = target: T3, Carboxypeptidase A (Bos taurus, UniProt P00730); test: Carboxypeptidase A activity assay; format: biochemical; settings: Ki class; compounds tested in 5% DMSO, 12 concentrations
T3 sequence (P00730 111-419): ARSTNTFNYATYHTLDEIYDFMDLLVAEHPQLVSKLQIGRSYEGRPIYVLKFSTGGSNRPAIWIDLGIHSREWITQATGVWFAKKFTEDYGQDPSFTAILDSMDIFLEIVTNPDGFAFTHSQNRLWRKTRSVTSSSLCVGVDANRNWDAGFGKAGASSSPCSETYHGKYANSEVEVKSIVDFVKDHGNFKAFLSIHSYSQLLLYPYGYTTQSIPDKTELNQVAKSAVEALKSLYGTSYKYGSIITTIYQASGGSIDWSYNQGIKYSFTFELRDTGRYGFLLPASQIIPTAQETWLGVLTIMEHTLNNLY
Description: Carboxypeptidase A activity was measured using a literature assay (Holmquist and Riordan, “Carboxypeptidase A,” Methods of Enzymatic Analysis (1984) p. 44–60). The assay was adapted to a 96 well format by adjusting to a 300 μL assay volume and using ultra-thin bottom plates (Costar/Corning) read at 328 nm. The assay was stopped using EDTA.
The activity of the test compounds was investigated using the procedure outlined above. The compounds were tested in 5% DMSO. Enzyme activity was measured at 12 compound concentrations. The Ki was calculated by using Ki=Kiapp/(1+[S]/Km).
To determine whether a test compound is capable of modulating carboxypeptidase A's ability to cleave a substrate the method described in Holmquist and Riordan, Carboxypeptidase A, p44–60, Peptidase and Their Inhibitors in Method of Enzymatic Analysis (1984), may be used.
The assay may be adapted to a 96 well format by adjusting to a 300 μl assay volume and using ultrathin bottom plates (Costar/Coming) read at 328 nm with a final assay volume of 300 μl. The assay may be stopped using EDTA.

T1 sequence (Q9BYF1 18-740 limits assumed): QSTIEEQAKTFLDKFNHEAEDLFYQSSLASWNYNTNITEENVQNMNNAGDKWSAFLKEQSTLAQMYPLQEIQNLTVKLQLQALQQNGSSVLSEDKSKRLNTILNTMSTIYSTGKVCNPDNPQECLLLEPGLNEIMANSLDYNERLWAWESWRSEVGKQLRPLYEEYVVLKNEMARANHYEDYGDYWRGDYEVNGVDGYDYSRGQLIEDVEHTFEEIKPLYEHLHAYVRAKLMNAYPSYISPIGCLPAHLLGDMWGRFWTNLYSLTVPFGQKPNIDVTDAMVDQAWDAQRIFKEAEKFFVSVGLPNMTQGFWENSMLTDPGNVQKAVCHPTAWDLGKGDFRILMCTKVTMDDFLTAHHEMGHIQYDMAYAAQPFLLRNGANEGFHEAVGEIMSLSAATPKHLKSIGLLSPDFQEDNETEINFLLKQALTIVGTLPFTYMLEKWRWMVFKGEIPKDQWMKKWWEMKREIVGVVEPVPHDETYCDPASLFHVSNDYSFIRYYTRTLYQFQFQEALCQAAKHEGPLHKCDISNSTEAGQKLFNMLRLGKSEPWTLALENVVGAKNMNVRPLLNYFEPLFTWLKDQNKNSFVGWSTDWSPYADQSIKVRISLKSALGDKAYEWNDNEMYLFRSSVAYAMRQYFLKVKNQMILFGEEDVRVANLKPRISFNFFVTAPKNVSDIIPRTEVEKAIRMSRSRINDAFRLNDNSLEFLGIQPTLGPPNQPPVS

SMILES	Ki [1] [nM]	Ki [2] [µM]	Ki [3] [µM]
CCC(NC(Cc1cccs1)C(=O)O)C(=O)O (stereo not drawn) [AK, 2-(1-Carboxy-2-thiophen-2-yl-ethylamino)-butync acid]	> 500	> 50	> 50
CC(C)CC(NC(Cc1cccs1)C(=O)O)C(=O)O (stereo not drawn) [AL, 2-(1-Carobxy-2-thiophen-2-yl-ethylamino)-4-methyl-pentanoic acid]	> 500	> 50	> 50
CSCC[C@H](NC(C)C(=O)O)C(=O)O (stereo partly drawn) [AM, 2-(1-Carboxy-ethylamino)-4-methylsulfanyl-butync acid]	> 500	> 50	> 50
CSCC[C@H](NC(CC(C)C)C(=O)O)C(=O)O (stereo partly drawn) [AN, 2-(1-Carboxy-3-methylsulfanyl-propylamino)-4-methyl-pentanoic acid]	> 500	> 50	10 to 50
CC(N[C@H](CCc1ccccc1)C(=O)O)C(=O)O (stereo partly drawn) [AW, 2-(1-Carboxy-ethylamino)-4-phenyl-butync acid]	> 500	> 50	> 50
O=C(O)C(CCc1ccccc1)N[C@@H](CC1CCCCC1)C(=O)O (stereo partly drawn) [BG, 2-(1-Carboxy-2-cyclohexyethylamino)-4-phenyl-butync acid]	> 500	> 50	> 50
CC(C)C[C@@H](NC(CCc1ccccc1)C(=O)O)C(=O)O (stereo partly drawn) [BH, 2-(1-Carboxy-3-phenyl-propylamino)-4-methyl-pentanoic acid]	> 500	> 50	> 50
C#CCC(N[C@@H](C(=O)O)c1ccccc1)C(=O)O (stereo partly drawn) [BN, 2-[(Carboxy-phenyl-methyl)-amino]-pent-4-ylnoic acid]	> 500	> 50	> 50
O=C(O)C(Cc1ccccc1)NC(C(=O)O)c1ccccc1 (stereo not drawn) [BO, 2-[(Carboxy-phenyl-methyl)-amino]-3-phenyl-propionic acid]	> 500	> 50	10 to 50
O=C(O)[C@H](CC1CCCCC1)N[C@@H](C(=O)O)c1ccccc1 [BP, 2-[(Carboxy-phenyl-methyl)-amino]-3-cyclohexyl-propionic acid]	> 500	> 50	> 50
CCCC[C@H](N[C@@H](C(=O)O)c1ccccc1)C(=O)O [BX, 2-[(Carboxy-phenyl-methyl)-amino]-hexanoicacid]	> 500	> 50	> 50
O=C(O)[C@H](NC1(C(=O)O)CCCCC1)c1ccccc1 [BY, 1-[(Carboxy-phenyl-methyl)-amino]-cyclohexanecarboxylic acid]	> 500	> 50	> 50
CC(C)CC(NCC(C)C(=O)O)C(=O)O (stereo not drawn) [CG, 2-(2-Carboxy-propylamino)-4-methyl-pentanoic acid]	> 500	> 50	> 50
CCCCCCC(N[C@H](CCc1ccccc1)C(=O)O)C(=O)O (stereo partly drawn) [CH, 2-(1-Carboxy-3-phenyl-propylamino)-octanoicacid]	> 500	> 50	> 50
CC(C)CC(N[C@H](CCc1ccccc1)CC(=O)O)C(=O)O (stereo partly drawn) [CI, 2-(1-Carboxymethyl-3-phenyl-propylamino)-4-methyl-pentanoic acid]	> 500	> 50	> 50
CC(C)CC(N[C@H](CCc1ccccc1)C(=O)O)C(=O)O (stereo partly drawn) [CM, 2-(1-Carboxy-3-phenyl-propylamino)-4-methyl-pentanoic acid]	> 500	> 50	> 50
CC(C)C[C@H](NCc1ccc(C(=O)O)cc1)C(=O)O [CN, 4-[(1-Carboxy-3-methyl-butylamino)-methyl]-benzoic acid]	> 500	> 50	> 50
CC(C)C[C@@H](N[C@H](Cc1cscn1)C(=O)O)C(=O)O [CO, 2-(1-Carboxy-2-thiazol-4-yl-ethylamino)-4-methyl-pentanoic acid]	> 500	> 50	> 50
CC(C)CC(NC(CC(=O)O)c1ccccc1)C(=O)O (stereo not drawn) [CQ, 2-(2-Carboxy-1-phenyl-ethylamino)-4-methyl-pentanoic acid]	> 500	> 50	> 50
Cc1ccc(C[C@H](CC(=O)O)NC(CC(C)C)C(=O)O)cc1 (stereo partly drawn) [CS, 2-[2-Carboxy-1-(4-methyl-benzyl)-ethylamino]-4-methyl-pentanoic acid]	> 500	> 50	> 50
CC(C)C[C@H](NCCCc1ccccc1)C(=O)O [CY, 4-Methyl-2-(3-phenyl-propylamino)-pentanoicacid]	> 500	> 50	> 50
CC(C)C[C@H](N[C@@H](CCc1ccccc1)C(=O)O)C(=O)OC(C)(C)C [CZ, 2-(1-Carboxy-3-phenyl-propylamino)-4-methyl-pentanoic acid tert-butyl ester]	> 500	> 50	> 50
CC(C)C[C@H](N[C@H](CCc1ccccc1)C(=O)O)C(=O)OC(C)(C)C [DA, 2-(1-Carboxy-3-phenyl-propylamino)-4-methyl-pentanoic acid tert-butyl ester]	> 500	> 50	> 50
CC(C)C[C@H](N[C@@H](CCc1ccccc1)C(=O)O)C(N)=O [DB, 2-(1-Carbamoyl-3-methyl-butylamino)-4-phenyl-butync acid]	> 500	> 50	> 50
CC(C)C[C@H](N[C@H](CCc1ccccc1)C(=O)O)C(N)=O [DC, 2-(1-Carbamoyl-3-methyl-butylamino)-4-phenyl-butync acid]	> 500	> 50	> 50
COC(=O)[C@H](CC(C)C)NC(=O)NCc1ccccc1 [DF, 2-(3-Benzyl-ureido)-4-methyl-pentanoic acidmethyl ester]	> 500	> 50	> 50
CC(C)CCNC(CCc1ccccc1)C(=O)O (stereo not drawn) [DR, 2-(3-Methyl-butylamino)-4-phenyl-butync acid]	> 500	> 50	10 to 50
CC(C)C[C@H](NC(=O)NCc1ccccc1)C(=O)O [DU, 2-(3-Benzyl-ureido)-4-methyl-pentanoic acid]	> 500	> 50	10 to 50
